Results from BigSolDB 2.1.

COc1ccc(-c2cc(-c3ccc(O)c(OC)c3)c(C#N)c(=O)[nH]2)cc1
solubility (mole fraction)
Details | in 1,4-dioxane | in chloroform | in ethanol | in ethyl acetate | in methanol | in n-butanol | in n-propanol
298.15 K | 0.00145 | 0.00111 | 0.00069 | 0.00107 | 0.000472 | 0.000297 | 0.000733
303.15 K | 0.00154 | 0.00116 | 0.000724 | 0.00115 | 0.000502 | 0.000344 | 0.000782
308.15 K | 0.00162 | 0.0012 | 0.000759 | 0.00123 | 0.000532 | 0.000389 | 0.000827
313.15 K | 0.00171 | 0.00124 | 0.000802 | 0.00129 | 0.000562 | 0.000443 | 0.000886
318.15 K | 0.0018 | 0.00129 | 0.000846 | 0.00136 | 0.000592 | 0.000497 | 0.000934
323.15 K | 0.00189 | 0.00134 | 0.000899 | 0.00145 | 0.000625 | 0.000565 | 0.00098
328.15 K | 0.00199 | 0.00138 | 0.000953 | 0.00154 | 0.000659 | 0.000633 | 0.00103

COc1cc(-c2cc(-c3ccc(Cl)cc3)[nH]c(=O)c2C#N)ccc1O
solubility (mole fraction)
Details | in 1,4-dioxane | in chloroform | in ethanol | in ethyl acetate | in methanol | in n-butanol | in n-propanol
298.15 K | 0.00149 | 0.00118 | 0.00073 | 0.00123 | 0.000577 | 0.0004 | 0.000791
303.15 K | 0.00156 | 0.00123 | 0.00077 | 0.00132 | 0.000603 | 0.000445 | 0.000836
308.15 K | 0.00163 | 0.00129 | 0.00081 | 0.0014 | 0.000629 | 0.000489 | 0.000882
313.15 K | 0.00172 | 0.00135 | 0.000861 | 0.0015 | 0.000653 | 0.000549 | 0.000929
318.15 K | 0.00181 | 0.00141 | 0.000905 | 0.00159 | 0.000677 | 0.000609 | 0.000976
323.15 K | 0.00189 | 0.00149 | 0.000948 | 0.00168 | 0.000705 | 0.000672 | 0.00102
328.15 K | 0.00197 | 0.00157 | 0.001 | 0.00177 | 0.000732 | 0.000735 | 0.00107

COc1cc(-c2cc(-c3ccc(O)cc3)[nH]c(=O)c2C#N)ccc1O
solubility (mole fraction)
Details | in 1,4-dioxane | in chloroform | in ethanol | in ethyl acetate | in methanol | in n-butanol | in n-propanol
298.15 K | 0.00153 | 0.00123 | 0.000745 | 0.00106 | 0.000574 | 0.000511 | 0.000847
303.15 K | 0.00161 | 0.0013 | 0.000786 | 0.00111 | 0.000605 | 0.000566 | 0.000882
308.15 K | 0.00169 | 0.00137 | 0.000828 | 0.00117 | 0.000635 | 0.00062 | 0.000927
313.15 K | 0.00178 | 0.00144 | 0.000876 | 0.00122 | 0.000664 | 0.000674 | 0.00098
318.15 K | 0.00187 | 0.00151 | 0.000922 | 0.00127 | 0.000693 | 0.000728 | 0.00104
323.15 K | 0.00195 | 0.00157 | 0.000976 | 0.00134 | 0.000724 | 0.000794 | 0.00111
328.15 K | 0.00203 | 0.00164 | 0.00103 | 0.0014 | 0.000754 | 0.000861 | 0.00116

COc1cc(-c2cc(-c3ccc(Br)cc3)[nH]c(=O)c2C#N)ccc1O
solubility (mole fraction)
Details | in 1,4-dioxane | in chloroform | in ethanol | in ethyl acetate | in methanol | in n-butanol | in n-propanol
298.15 K | 0.0014 | 0.00114 | 0.00071 | 0.00109 | 0.000523 | 0.000338 | 0.000757
303.15 K | 0.00148 | 0.00119 | 0.00075 | 0.00116 | 0.000555 | 0.000384 | 0.0008
308.15 K | 0.00155 | 0.00123 | 0.000789 | 0.00124 | 0.000587 | 0.00043 | 0.000843
313.15 K | 0.00163 | 0.00128 | 0.000832 | 0.00132 | 0.000615 | 0.000484 | 0.0009
318.15 K | 0.0017 | 0.00133 | 0.000876 | 0.0014 | 0.000642 | 0.000538 | 0.000951
323.15 K | 0.00177 | 0.00137 | 0.000919 | 0.00148 | 0.000682 | 0.000614 | 0.000997
328.15 K | 0.00184 | 0.00142 | 0.000972 | 0.00156 | 0.000722 | 0.000691 | 0.00105

COc1cc(-c2cc(-c3ccc(F)cc3)[nH]c(=O)c2C#N)ccc1O
solubility (mole fraction)
Details | in 1,4-dioxane | in chloroform | in ethanol | in ethyl acetate | in methanol | in n-butanol | in n-propanol
298.15 K | 0.00156 | 0.00134 | 0.000762 | 0.00133 | 0.000618 | 0.000531 | 0.000864
303.15 K | 0.00164 | 0.00139 | 0.000809 | 0.00142 | 0.000638 | 0.000589 | 0.000907
308.15 K | 0.00173 | 0.00145 | 0.000848 | 0.0015 | 0.000658 | 0.000648 | 0.00095
313.15 K | 0.00183 | 0.00151 | 0.000897 | 0.0016 | 0.000688 | 0.000707 | 0.00101
318.15 K | 0.00193 | 0.00158 | 0.000946 | 0.00169 | 0.000718 | 0.000767 | 0.00108
323.15 K | 0.00202 | 0.00167 | 0.001 | 0.00178 | 0.000754 | 0.000835 | 0.00113
328.15 K | 0.00211 | 0.00176 | 0.00106 | 0.00187 | 0.00079 | 0.000903 | 0.00119
